Laboratory results published in ChEMBL document CHEMBL4334495, “Design and Biological Evaluation of m-Xylene Thioether-Stapled Short Helical Peptides Targeting the HIV-1 gp41 Hexameric Coiled-Coil Fusion Complex” (J Med Chem, 2019).
The source made the active and inactive calls. The calls are words filed in the database; no cut-off is given here. Starred links: 1 amine or outer side, 2 acyl side, 3 side chain; linkers in the order of their positions; H or OH if unused. Positions of bridges follow the written chain, without caps; N, C: chain ends. Non-standard residues stand in square brackets, D forms with d. Residues, ends and D or L forms follow the SMILES beside them. ξ: configuration not given here. mXylylene = c1cc(C[*:1])cc(C[*:2])c1; ξhCys = NC(CCS)C(=O)O

How the values were obtained:
[1] = tested on: Human immunodeficiency virus 1; assay: (§1) Ratio of EC50 for antiviral activity against T20 resistant HIV1 NL4-3 harboring with V38E/N42T mutant infected in human MT2 cells or CEMx174 5.25 M7 cells in absence of HP23 to EC50 for Antiviral activity against T20 resistant HIV1 NL4-3 harboring with V38E/N42T mutant infected in human MT2 cells or CEMx174 5.25 M7 cells at 300:1 compound to HP23 ratio; assay type: functional
[2] = tested on: Human immunodeficiency virus 1; assay: as §1, with “T2635” for “T20”, “LAI” for “NL4-3”, “Q66R” for “with V38E/N42T”, “antiviral” for “EC50 for Antiviral”, “25:1 ratio of” for “300:1”, “HP23” for “HP23 ratio”; assay type: functional, M:B_Lai
[3] = tested on: Human immunodeficiency virus 1; assay: (§2) Antiviral activity against T20 resistant HIV1 NL4-3 harboring with V38E/N42T mutant infected in human MT2 cells or CEMx174 5.25 M7 cells assessed as reduction in p24 Gag protein production at 150:1 compound to HP23 ratio measured at 4 days post-infection by ELISA; assay type: functional, organism-based
[4] = tested on: Human immunodeficiency virus 1; assay: as §2, with “Synergistic antiviral” for “Antiviral”, “production by measuring combination index” for “production”; assay type: functional
[5] = Metabolic stability in rat kidney homogenates assessed as parent compound remaining at 3 to 100 uM after 4 hrs by RP-HPLC analysis; assay type: ADME, tissue-based; details: read-out: Stability
[6] = tested on: Human immunodeficiency virus 1; assay: Antiviral activity against T20 resistant HIV1 NL4-3 harboring with V38E/N42S mutant infected in human MT2 cells or CEMx174 5.25 M7 cells assessed as reduction in p24 Gag protein production at 14000:1 compound to HP23 ratio measured at 4 days post-infection by ELISA; assay type: functional, organism-based
[7] = tested on: Human immunodeficiency virus 1; assay: Antiviral activity against HIV1 NL4-3 infected in human MT2 cells or CEMx174 5.25 M7 cells assessed as reduction in p24 Gag protein production at 5:1 compound to HP23 ratio measured at 4 days post-infection by ELISA; assay type: functional, organism-based; details: Human immunodeficiency virus 1, NL4-3, 96 h
[8] = tested on: Human immunodeficiency virus 1; assay: Antiviral activity against T20 resistant HIV1 NL4-3 harboring with V38E/N42S mutant infected in human MT2 cells or CEMx174 5.25 M7 cells assessed as reduction in p24 Gag protein production at 7000:1 compound to HP23 ratio measured at 4 days post-infection by ELISA; assay type: functional, organism-based
[9] = tested on: Human immunodeficiency virus 1; assay: Antiviral activity against T2635 resistant HIV1 LAI harboring Q66R mutant infected in human MT2 cells or CEMx174 5.25 M7 cells assessed as reduction in p24 Gag protein production at 25:1 ratio of compound to HP23 measured at 4 days post infection by ELISA; assay type: functional, organism-based, M:B_Lai
[10] = tested on: Human immunodeficiency virus 1; assay: Ratio of EC50 for antiviral activity against HIV1 NL4-3 infected in human MT2 cells or CEMx174 5.25 M7 cells in absence of HP23 to EC50 for antiviral activity against HIV1 NL4-3 infected in human MT2 cells or CEMx174 5.25 M7 cells at 10:1 compound to HP23 ratio; assay type: functional
[11] = target: Envelope glycoprotein gp160 (Human immunodeficiency virus 1) (UniProt Q6QLK5); assay: Binding affinity to HIV1 GP41 using GP41 NHR derived N36 peptide assessed as formation of secondary structure at 10 uM incubated for 30 mins by CD spectroscopy
Envelope glycoprotein gp160 (Human immunodeficiency virus 1), sequence (Q6QLK5 1-814): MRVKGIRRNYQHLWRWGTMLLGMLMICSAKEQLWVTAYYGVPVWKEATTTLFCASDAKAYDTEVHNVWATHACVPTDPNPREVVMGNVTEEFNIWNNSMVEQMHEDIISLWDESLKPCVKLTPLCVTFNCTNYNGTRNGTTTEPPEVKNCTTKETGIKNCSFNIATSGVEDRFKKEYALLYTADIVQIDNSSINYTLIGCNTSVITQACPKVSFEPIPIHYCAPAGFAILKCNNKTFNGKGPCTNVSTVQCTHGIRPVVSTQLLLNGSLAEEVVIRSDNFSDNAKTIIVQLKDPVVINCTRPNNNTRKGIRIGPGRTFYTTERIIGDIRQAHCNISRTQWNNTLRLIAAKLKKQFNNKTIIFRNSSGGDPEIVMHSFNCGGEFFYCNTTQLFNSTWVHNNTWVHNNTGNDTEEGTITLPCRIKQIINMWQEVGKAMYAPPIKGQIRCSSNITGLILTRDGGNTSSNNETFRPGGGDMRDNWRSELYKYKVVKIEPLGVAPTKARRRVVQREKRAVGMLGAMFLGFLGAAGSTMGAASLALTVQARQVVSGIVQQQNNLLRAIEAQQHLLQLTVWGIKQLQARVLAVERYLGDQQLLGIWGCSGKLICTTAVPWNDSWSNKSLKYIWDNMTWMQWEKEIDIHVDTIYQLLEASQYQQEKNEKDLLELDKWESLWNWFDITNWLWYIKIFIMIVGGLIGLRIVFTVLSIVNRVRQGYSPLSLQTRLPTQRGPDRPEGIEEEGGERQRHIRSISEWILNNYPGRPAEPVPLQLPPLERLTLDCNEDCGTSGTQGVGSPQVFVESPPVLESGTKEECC

[12] = tested on: Human immunodeficiency virus 1; assay: Antiviral activity against R5 tropic HIV-1 subtype-B Bal infected in human MT2 cells or CEMx174 5.25 M7 cells assessed as reduction in p24 Gag protein production at 3:1 ratio of compound to HP23 measured at 4 days post-infection by ELISA; assay type: functional, cell-based, HIV-1 group M; details: Human immunodeficiency virus 1, Bal, 96 h
[13] = Cytotoxicity against human TZM-bl cells assessed as reduction in viability after 2 days by XTT assay; assay type: cell-based
[14] = tested on: Human immunodeficiency virus 1; assay: Synergistic antiviral activity against T2635 resistant HIV1 LAI harboring Q66R mutant infected in human MT2 cells or CEMx174 5.25 M7 cells assessed as reduction in p24 Gag protein production by measuring combination index at 12.5:1 compound ratio measured at 4 days post infection by ELISA; assay type: functional, M:B_Lai
[15] = Metabolic stability of the compound assessed as Proteinase K (unknown origin)-mediated compound hydrolysis by measuring parent compound remaining at 3 to 100 uM after 4 hrs by RP-HPLC analysis; assay type: ADME; details: human, read-out: Stability
[16] = tested on: Human immunodeficiency virus 1; assay: Antiviral activity against HIV1 NL4-3 infected in human MT2 cells or CEMx174 5.25 M7 cells assessed as reduction in p24 Gag protein production at 10:1 compound to HP23 ratio measured at 4 days post-infection by ELISA; assay type: functional, organism-based; details: Human immunodeficiency virus 1, NL4-3, 96 h
[17] = tested on: Human immunodeficiency virus 1; assay: as §2, with “Synergistic antiviral” for “Antiviral”, “production by measuring combination index” for “production”, “600:1” for “150:1”; assay type: functional
[18] = tested on: Human immunodeficiency virus 1; assay: Synergistic antiviral activity against T2635 resistant HIV1 LAI harboring Q66R mutant infected in human MT2 cells or CEMx174 5.25 M7 cells assessed as reduction in p24 Gag protein production by measuring combination index at 25:1 compound ratio measured at 4 days post infection by ELISA; assay type: functional, M:B_Lai
[19] = target: Envelope glycoprotein gp160 (Human immunodeficiency virus 1) (UniProt Q6QLK5); assay: Ratio of EC50 for inhibition of HIV1 gp41-induced cell-cell fusion between viral envelope expressing human HL2/3 cells to CD4/CCR5 receptor expressing TZM-bl cells in absence of HP23 to EC50 for inhibition of HIV1 gp41-induced cell-cell fusion between viral envelope expressing human HL2/3 cells to CD4/CCR5 receptor expressing TZM-bl cells at 1:1 ratio of hCS6ERE to compound
[20] = tested on: Human immunodeficiency virus 1; assay: as §1, with “hCS6ERE” for “HP23”, “150:1 hCS6ERE to” for “300:1”, “compound” for “compound to HP23”; assay type: functional
[21] = tested on: Human immunodeficiency virus 1; assay: Ratio of EC50 for antiviral activity against T2635 resistant HIV1 LAI harboring Q66R mutant infected in human MT2 cells or CEMx174 5.25 M7 cells in absence of hCS6ERE to antiviral activity against T2635 resistant HIV1 LAI harboring Q66R mutant infected in human MT2 cells or CEMx174 5.25 M7 cells at 50:1 ratio of hCS6ERE to compound; assay type: functional, M:B_Lai
[22] = tested on: Human immunodeficiency virus 1; assay: Antiviral activity against T2635 resistant HIV1 LAI harboring Q66R mutant infected in human MT2 cells or CEMx174 5.25 M7 cells assessed as reduction in p24 Gag protein production at 12.5:1 ratio of hCS6ERE to compound measured at 4 days post infection by ELISA; assay type: functional, organism-based, M:B_Lai

CC[C@H](C)[C@H](NC(C)=O)C(=O)N[C@@H](CCC(=O)O)C(=O)N[C@@H](CCC(=O)O)C(=O)N[C@@H](CC(C)C)C(=O)N[C@H](C(=O)NC1CCSCc2cccc(c2)CSCCC(C(=O)N[C@@H](CCC(N)=O)C(=O)N[C@@H](CCC(N)=O)C(=O)N[C@@H](CCCNC(=N)N)C(=O)N[C@@H](CCCCN)C(=O)N[C@@H](CC(N)=O)C(=O)N[C@@H](CCC(=O)O)C(=O)N[C@@H](CCC(=O)O)C(=O)N[C@@H](C)C(=O)N[C@@H](CC(C)C)C(=O)N[C@@H](CCCNC(=N)N)C(=O)N[C@@H](CCC(=O)O)C(=O)N[C@@H](CC(C)C)C(N)=O)NC(=O)[C@H](CCC(N)=O)NC(=O)[C@H](C)NC(=O)[C@H](C)NC1=O)[C@@H](C)CC (some centres not stated) (Ac-IEELI[ξhCys]AAQ[ξhCys]QQRKNEEALREL-NH2; linker 6-10 via mXylylene)
Ratio EC50 [1]: 2.3
Ratio EC50 [2]: 2.2
EC50 [3]: 327 nM
CI [4]: 0.9
remaining at 4 h [5]: 15.8%
EC50 [6]: 3170 nM
EC50 [7]: 4.4 nM
EC50 [8]: 2520 nM
EC50 [9]: 39.5 nM
Ratio EC50 [10]: 2.5
Activity [11]: Active
EC50 [12]: 4.1 nM
CC50 at 48 h [13]: > 800000 nM
CI [14]: 0.7
remaining at 4 h, up to 100 µM [15]: 100%
EC50 [16]: 9 nM
CI [17]: 0.7
CI [18]: 0.8

H-EMTWEEWEKKIEEYTKKIEEILK-OH
Ratio EC50 [19]: 1
Ratio EC50 [20]: 1.9
Ratio EC50 [21]: 9.6
EC50 [22]: 1.8 nM
